Laboratory results reported in patent publication US20220259212A1, “INHIBITORS OF INDOLEAMINE 2,3-DIOXYGENASE AND/OR TRYPTOPHAN 2,3-DIOXYGENASE” (Idorsia Pharmaceuticals Ltd, priority 2019, published 2022).

Columns and labels:
IDO1 in SKOV3 cells = molecular target: T1, IDO1 in SKOV3 cells (Homo sapiens, UniProt P14902); assay: Cell-based IDO inhibitory activity in IFNγ-stimulated SKOV3 cells (NFK + kynurenine by LCMS); conditions: IFNγ 50 ng/ml, 200 uM L-tryptophan, 24 hours
T1 construct: SKOV3 cells (NCI, No. 0503405) which upregulate IDO1 after stimulation with IFNγ; host or cells: SKOV3 cells stimulated with IFNγ
Source text: 3) Testing Compounds for IDO/TDO Inhibitory Activity and Toxicity in Cell-Based Assays
SW48 cells (ATCC, CCL-231) are used to measure compounds for TDO inhibitory activity and are routinely maintained in DMEM high glucose/GlutaMAX™/pyruvate 90% (v/v), FCS 10% (v/v), Penicilin/streptomycin 1% (v/v). SKOV3 cells (NCI, No. 0503405) which upregulate IDO1 after stimulation with IFNγ are used to measure compounds for IDO inhibitory activity. SKOV3 cells are routinely maintained in RPMI 90% (v/v), FCS 10% (v/v), Penicilin/streptomycin 1% (v/v). SW48 or SKOV3 cells are seeded in 384 well plates at a density of 8000 cells in 45 ul per well or 4000 cells in 45 ul per well, respectively. Plates are incubated at 37° C./5% CO2 for 24 hours. On the next day, 10 ul compound in serial dilutions (tested concentration range 10 uM-40 nM) and 200 uM L-tryptophan are added (SKV03 receive in addition IFNγ at a final concentration of 50 ng/ml). After 24 hours of incubation at 37° C./5% CO2, 3 ul of the supernatant per well is transferred to 25 ul H2O per well in a 384 deep well plate and 25 ul of the supernatant per well is transferred to waste. The SKOV3 and SW48 cell plates with 25 ul supernatant per well remaining are used to measure viability (see below). The 384 deep well plate containing 3 ul supernatant and 25 ul H2O per well are further processed for LCMS: After the addition of 100 ul L-tryptophan-(indole-d5) (Sigma 615862) at 200 nM in methanol, the 384 deep well plates are centrifuged for 10 minutes at 3220×g at 4° C., 75 ul H2O is added per well and plates centrifuged again for 10 minutes at 3220×g at 4° C. N-formylkynurenine and kynurenine are quantified by LCMS, normalized to the internal standard L-tryptophan-(indole-d5) and the sum is calculated. Samples with 0.2% DMSO (0% effect) and a TDO/IDO inhibitor (100% effect) are used as control samples to set the parameters for the non-linear regression necessary for the determination of the IC50 for each compound. For each compound concentration the percentage of activity compared to 0% and 100% effect is calculated as average±STDEV (each concentration measured in duplicate). IC50 values and curves are generated with XLfit software (IDBS) using Dose-Response One Site model 203. The calculated IC50 values may fluctuate depending on the daily cellular assay performance. Fluctuations of this kind are known to those skilled in the art. When compounds are measured multiple times, mean values are given.

[1] = molecular target: T2, Recombinant full-length human IDO1 (Homo sapiens, UniProt P14902); assay: IDO1 enzymatic assay (NFK quantified by LCMS); type: biochemical; conditions: 2 nM enzyme, 5 μM L-tryptophan, 30 min pre-incubation, pH6.5; mean if measured multiple times; read-out: hIDO activity (IC50 in nM)
T2 construct: Recombinant full-length human IDO1 with a N-terminal hexahistidine tag; hexahistidine (N); made in house; host or cells: E. coli
Description: 1) Testing Compounds for IDO Inhibitory Activity in an IDO1 Enzymatic Assay:
Recombinant full-length human IDO1 with a N-terminal hexahistidine tag expressed in E. coli and purified to homogeneity is incubated at a final concentration of 2 nM in assay buffer consisting of 37.5 mM phosphate buffer at pH6.5 supplemented with 10 mM ascorbic acid, 0.45 μM methylene blue, 50 U/ml catalase, 0.01% BSA, and 0.01% Tween 20 (protocol modified from Seegers et al, JBS 2014). Example compounds are serially diluted in DMSO, further diluted in phosphate buffer, and added to the enzyme at final concentrations ranging from 10 μM to 0.5 nM. The final DMSO concentration is 0.6%. Following a pre-incubation of 30 minutes at RT, the reaction is started by the addition of L-tryptophan at a final concentration of 5 μM in assay buffer. After 30 minutes of incubation at RT, 3 μL of the 20 μl reaction mixture are transferred to a 384 deep well plate containing 25 μL of deionized water. 100 μl of 200 nM L-Tryptophan-(indole-d5) in cold 100% methanol are added followed by a 10 minutes centrifugation at 3220×g at 4° C. An additional 75 μL of deionized water are then added followed by a 10 minutes centrifugation at 3220×g at 4° C. The product of the reaction N′-Formylkynurenine (NFK) is quantified by LCMS and normalized to the L-Tryptophan-(indole-d5) signal. Samples with 0.6% DMSO (0% effect) and a TDO/IDO inhibitor (100% effect) are used as control samples to set the parameters for the non-linear regression necessary for the determination of the half-maximal inhibitory concentration (IC50) for each compound. For each compound concentration the percentage of activity compared to 0% and 100% effect is calculated as average±STDEV (each concentration measured in duplicate). IC50 values and curves are generated with XLfit software (IDBS) using Dose-Response One Site model 203 (four parameter logistic curve model). The calculated IC50 values may fluctuate depending on the daily assay performance. Fluctuations of this kind are known to those skilled in the art. When compounds are measured multiple times, mean values are given.

[2] = molecular target: T3, Recombinant human TDO comprising amino acids 19-407 (Homo sapiens, UniProt P48775); assay: TDO2 enzymatic assay (NFK quantified by LCMS); type: biochemical; conditions: 15 nM enzyme, 200 μM L-tryptophan, 30 min pre-incubation, pH7; mean if measured multiple times; read-out: hTDO activity (IC50 in nM)
T3 construct: human TDO comprising amino acids 19-407; hexahistidine (N); made in house; host or cells: E. coli
Description: 2) Testing Compounds for TDO Inhibitory Activity in a TDO2 Enzymatic Assay:
Recombinant human TDO comprising amino acids 19-407 with a N-terminal hexahistidine tag expressed in E. coli and purified to homogeneity is incubated at a final concentration of 15 nM in assay buffer consisting of 75 mM phosphate buffer at pH7 supplemented with 100 μM ascorbic acid, 50 U/ml Catalase, 0.01% BSA, and 0.01% Tween 20 (protocol modified from Seegers et al, JBS 2014). Example compounds are serially diluted in DMSO, further diluted in phosphate buffer, and added to the reaction mixture at final concentrations ranging from 10 μM to 0.5 nM. The final DMSO concentration is 0.6%. Following a pre-incubation of 30 minutes at RT, the reaction is started by the addition of L-tryptophan at a final concentration of 200 μM in assay buffer. After 30 minutes of incubation at RT, 3 μL of the reaction mixture are transferred to a 384 deep well plate containing 25 μL of deionized water. 100 μl of 200 nM L-Tryptophan-(indole-d5) in cold 100% methanol are added followed by a 10 minutes centrifugation at 3220×g at 4° C. An additional 75 μL of deionized water are then added followed by a 10 minutes centrifugation at 3220×g at 4° C. The product of the reaction N′-Formylkynurenine (NFK) is quantified by LCMS and normalized to the L-Tryptophan-(indole-d5) signal. Samples with 0.6% DMSO (0% effect) and a TDO/IDO inhibitor (100% effect) are used as control samples to set the parameters for the non-linear regression necessary for the determination of the half-maximal inhibitory concentration (IC50) for each compound. For each compound concentration the percentage of activity compared to 0% and 100% effect is calculated as average±STDEV (each concentration measured in duplicate). IC50 values and curves are generated with XLfit software (IDBS) using Dose-Response One Site model 203 (four parameter logistic curve model). The calculated IC50 values may fluctuate depending on the daily assay performance. Fluctuations of this kind are known to those skilled in the art. When compounds are measured multiple times, mean values are given.

T3 sequence (P48775 19-406 limits assumed): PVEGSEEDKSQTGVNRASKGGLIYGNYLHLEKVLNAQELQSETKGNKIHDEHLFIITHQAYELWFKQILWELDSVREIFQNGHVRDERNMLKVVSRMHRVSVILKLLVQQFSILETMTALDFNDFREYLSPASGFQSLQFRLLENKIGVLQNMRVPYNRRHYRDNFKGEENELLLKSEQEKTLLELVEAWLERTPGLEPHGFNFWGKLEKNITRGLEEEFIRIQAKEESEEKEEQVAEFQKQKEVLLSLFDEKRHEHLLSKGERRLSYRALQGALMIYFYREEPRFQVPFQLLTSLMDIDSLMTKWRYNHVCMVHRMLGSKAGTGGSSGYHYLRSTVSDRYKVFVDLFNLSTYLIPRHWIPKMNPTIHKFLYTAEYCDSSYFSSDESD
T1 sequence (P14902 whole entry): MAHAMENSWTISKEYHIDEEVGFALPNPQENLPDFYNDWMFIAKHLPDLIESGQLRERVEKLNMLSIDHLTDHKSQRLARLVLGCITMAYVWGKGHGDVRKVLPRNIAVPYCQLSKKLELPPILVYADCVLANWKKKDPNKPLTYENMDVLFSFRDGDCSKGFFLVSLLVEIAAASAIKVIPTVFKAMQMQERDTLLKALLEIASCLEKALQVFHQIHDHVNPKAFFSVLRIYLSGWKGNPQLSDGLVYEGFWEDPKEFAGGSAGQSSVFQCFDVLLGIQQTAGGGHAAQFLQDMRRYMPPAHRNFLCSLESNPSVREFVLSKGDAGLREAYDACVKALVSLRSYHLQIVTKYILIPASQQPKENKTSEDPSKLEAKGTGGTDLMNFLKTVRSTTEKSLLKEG
T2 sequence (P14902 whole entry): as above

Structure (SMILES) | IC50 (IDO1 in SKOV3 cells) [nM] | IC50 [1] [nM] | IC50 [2] [nM]
OC(c1cn(-c2ccccc2)nn1)c1c(Cl)ccc2cncn12 (racemic) [Example 1, rac-(6-Chloro-imidazo[1,5-a]pyridin-5-yl)-(1-phenyl-1H-[1,2,3]triazol-4-yl)-methanol] | 246 | 9.6 | > 10200
CN(C)c1ccc(-n2cc([C@H](O)c3c(C4CC4)ncc4cncn34)nn2)cc1 [Example 44, (R)-(6-Cyclopropyl-imidazo[1,5-a]pyrazin-5-yl)-[1-(4-dimethylamino-phenyl)-1H-[1,2,3]triazol-4-yl]-methanol] | 377 | 14.5 | > 10200
CC(C)(O)COc1ccc(-n2cc(C(O)c3c(C4CC4)ncc4cncn34)nn2)cc1 (racemic) [Example 18, rac-1-(4-{4-[(6-Cyclopropyl-imidazo[1,5-a]pyrazin-5-yl)-hydroxy-methyl]-[1,2,3]triazol-1-yl}-phenoxy)-2-methyl-propan-2-ol] | 140 | 33.2 | > 10200
Oc1ccc(-n2cc(C(O)c3c(C4CC4)ncc4cncn34)nn2)cc1 (racemic) [Example 15, rac-4-{4-[(6-Cyclopropyl-imidazo[1,5-a]pyrazin-5-yl)-hydroxy-methyl]-[1,2,3]triazol-1-yl}-phenol] | 208 | 13.1 | 9610
Nc1ccc(-n2cc([C@H](O)c3c(C4CC4)ncc4cncn34)nn2)cc1 [Example 41, (R)-[1-(4-Amino-phenyl)-1H-[1,2,3]triazol-4-yl]-(6-cyclopropyl-imidazo[1,5-a]pyrazin-5-yl)-methanol] | 212 | 17.5 | > 10200
Cc1ccc(-n2cc(C(O)c3c(C4CC4)ccc4cncn34)nn2)cc1 (racemic) [Example 5, rac-(6-Cyclopropyl-imidazo[1,5-a]pyridin-5-yl)-(1-p-tolyl-1H-[1,2,3]triazol-4-yl)-methanol] | 53.7 | 4.83 | > 10200
COc1ccc(-n2cc(C(O)c3c(C4CC4)ncc4cncn34)nn2)cc1 (racemic) [Example 17, rac-(6-Cyclopropyl-imidazo[1,5-a]pyrazin-5-yl)-[1-(4-methoxy-phenyl)-1H-[1,2,3]triazol-4-yl]-methanol] | 172 | 20.4 | > 10200

These reach a lower IC50 (IDO1 in SKOV3 cells). Values come first.

IC50 (IDO1 in SKOV3 cells) [nM] | IC50 [1] [nM] | IC50 [2] [nM] | Structure (SMILES)
9.2 | 1.13 | > 10200 | COc1cc(F)c(-n2cc([C@H](O)c3c(Cl)ccc4cncn34)nn2)cc1F [Example 31, (R)-(6-Chloro-imidazo[1,5-a]pyridin-5-yl)-[1-(2,5-difluoro-4-methoxy-phenyl)-1H-[1,2,3]triazol-4-yl]-methanol]
25.4 | 9.6 | > 10200 | Oc1ccc(-n2cc(C(O)c3c(C4CC4)ncc4cncn34)nn2)cc1Cl (racemic) [Example 10, rac-2-Chloro-4-{4-[(6-cyclopropyl-imidazo[1,5-a]pyrazin-5-yl)-hydroxy-methyl]-[1,2,3]triazol-1-yl}-phenol]
11.6 | 13.7 | > 10200 | OC(c1cn(-c2ccc(OCC3(F)COC3)cc2)nn1)c1c(C2CC2)ccc2cncn12 (racemic) [Example 19, rac-(6-Cyclopropyl-imidazo[1,5-a]pyridin-5-yl)-{1-[4-(3-fluoro-oxetan-3-ylmethoxy)-phenyl]-1H-[1,2,3]triazol-4-yl}-methanol]
0.95 | 2.39 | > 10200 | CCc1ccc2cncn2c1[C@@H](O)c1cn(-c2cc(F)c(OC)cc2F)nn1 [Example 35a, (R)-[1-(2,5-Difluoro-4-methoxy-phenyl)-1H-[1,2,3]triazol-4-yl]-(6-ethyl-imidazo[1,5-a]pyridin-5-yl)-methanol]
19.5 | 6.28 | > 10200 | O[C@@H](c1cn(-c2ccc(OCC3(F)COC3)c(F)c2)nn1)c1c(C2CC2)ncc2cncn12 [Example 28, (R)-(6-Cyclopropyl-imidazo[1,5-a]pyrazin-5-yl)-{1-[3-fluoro-4-(3-fluoro-oxetan-3-ylmethoxy)-phenyl]-1H-[1,2,3]triazol-4-yl}-methanol]
18.9 | 9.85 | > 10200 | COc1ccc(-n2cc([C@H](O)c3c(C4CC4)ccc4cncn34)nn2)cc1Cl [Example 8a, (R)-[1-(3-Chloro-4-methoxy-phenyl)-1H-[1,2,3]triazol-4-yl]-(6-cyclopropyl-imidazo[1,5-a]pyridin-5-yl)-methanol]
6.12 | 3.77 | > 10200 | Oc1ccc(-n2cc(C(O)c3c(C4CC4)ccc4cncn34)nn2)cc1Cl (racemic) [Example 7, rac-2-Chloro-4-{4-[(6-cyclopropyl-imidazo[1,5-a]pyridin-5-yl)-hydroxy-methyl]-[1,2,3]triazol-1-yl}-phenol]
